For one data set, the system named is SKBR-3. The experiment in a line: MTT assay, SKBR-3. The following applies: for IC50: SK-BR-3, MTT assay, SKBR-3 human breast adenocarcinoma, value (SD); for SKBR-3 SI: Selectivity Index = IC50 HDF / IC50 SKBR-3. It is filed as cell-based, human. The procedure: (§1) The cytotoxic activity of oleanolic acid (mother compound, 1, Figure 2) and its 14 derivatives (3a–3n, Figure 2) was tested in vitro using the standard MTT method based on viability assay, e.g., [44] against carcinoma cell lines: SKBR-3, SKOV-3, PC-3, U-87, and one normal cell line: HDF.
(§2) Human cancer cells: SKBR-3 and SKOV-3 were cultured in McCoy’s Modified Medium; PC-3 was cultured in an F-12K medium; U-87 was cultured in EMEM medium; HDF was cultured in Fibroblast Basal Medium. Each medium was supplemented with 10% fetal bovine serum, 1% L- glutamine, and 1% penicillin/streptomycin solution. The cell lines were kept in an incubator at 37 °C. All the cell lines and mediums were obtained from the American Type Culture Collection (ATCC) supplied by LGC-Standards (Lomianki, Poland).
(§3) The MTT assay was conducted as described earlier, e.g., [44]. In short, this method is based on the reaction between mitochondria enzymes (dehydrogenases) of tested cell lines and 3-(4,5-dimethylthiazol-2-yl)-2,5-diphenyltetrazolium bromide (MTT). The final product of this reaction gives violet formazan crystals. The number of live cells is proportional to the amount of formazan and is represented by the violet dye reagent. The details of the experiments are given in [44].
(Tetrazolium assays rely on reduction of a dye to a coloured formazan, in cell work by metabolically active cells.)

Another data set concerns HDF. The experiment in a line: MTT assay, HDF normal cell line. It counts as cell-based. The settings on record: Homo sapiens, value (SD). Here is the method: as §1, §2, §3
Another data set has as its system U-87. The experiment in a line: MTT assay, U-87. It is filed as cell-based, human. The settings on record: for U-87 SI: Selectivity Index = IC50 HDF / IC50 U-87; for IC50: U-87 MG, MTT assay, U-87 human glioblastoma, value (SD). Here is the method: as §1, §2, §3
A short description of another data set: CUPRAC antioxidant assay. The settings on record: for CUPRAC activity (in words): Figure 3. The text has this: (§4) The results of the antioxidant activity of oleanolic acid (1) and Acetylated Oleanolic Acid Dimers (AcOADs) 3a–3n evaluated with CUPRAC and DPPH assays are given in Figure 3. The results are presented as % inhibition of the copper(II) ions and Trolox equivalent (blue bars) calculated from the standard curve, presented in the Supplementary Materials (Supplementary Materials S02, Figure S1) and as % inhibition of the DPPH radical and Trolox equivalent (pink bars), calculated from the standard curve presented in the Supplementary Materials (Supplementary Materials S02, Figure S2).
(§5) The CUPRAC reagent (7.5 mM ethanolic 96% neocuproine solution, 10 mM CuCl2 × H2O solution, and an ammonium acetate buffer of pH 7.0) and DPPH reagent (2,2-diphenyl-1-picrylhydrazyl 0.2 mM solution) were applied.
(§6) The DPPH assay relies on the ability of an antioxidant to donate a hydrogen atom or an electron to the stable DPPH radical, resulting in its reduction and subsequent color change. In contrast, the CUPRAC method measures the reducing power of a sample by quantifying its ability to convert the Cu-neocuproine reagent complex into the Cu(I) form. The results are presented as % inhibition of the copper(II) ions and Trolox equivalent (blue bars) calculated from the standard curve (Supplementary Materails S02, Figure S1) and as % inhibition of the DPPH radical and Trolox equivalent (pink bars), calculated from the standard curve (Supplementary Materials S02, Figure S2). The details of the experiments are given in [46].

A further data set has as its system SKOV-3. The experiment in a line: MTT assay, SKOV-3. It counts as cell-based, human. The settings on record: for IC50: SK-OV-3, MTT assay, SKOV-3 human ovarian cystadenocarcinoma, value (SD); for SKOV-3 SI: Selectivity Index = IC50 HDF / IC50 SKOV-3. The procedure:
as §1, §2, §3

Another data set concerns PC-3. The experiment in a line: MTT assay, PC-3. It counts as cell-based, human. The settings on record: for IC50: MTT assay, PC-3 human prostate carcinoma, value (SD), read-out: B IC50 (SD); for B SI: Selectivity Index = IC50 HDF / IC50 of PC-3. Here is the method:
as §1, §2, §3

Data set [1] deals with SKBR-3, SKOV-3, PC-3, and U-87 cancer cell lines. The experiment in a line: MTT assay, four cancer cell lines taken together. It is filed as cell-based, human. The settings on record: MTT, across SKBR-3, SKOV-3, PC-3, U-87. The procedure:
as §1, §2, §3

On the set-up of data set [2]: method as in PMID 39000101, PMID 39125028. The following applies: previously analyzed derivatives; cited from earlier work.
The nature of another data set: DPPH antioxidant assay. The settings on record: for DPPH activity (in words): Figure 3.
Excerpt: as §4, §5, §6
(DPPH is a stable violet radical that fades when it is reduced.)

Details of data set [3]: method as in PMID 39000101, PMID 39125028. The settings on record: previously analyzed derivatives; cited from earlier work. This is another data set of the same source.
The nature of data set [4]: Solubility in ethanol observed at crystallization. The following applies: room temperature. It is filed as physicochemical.

Structures are written as SMILES. “Also recorded” adds a separate entry of the source. Where only a bound is given, the exact number is not on record here.

With `CC(=O)OC1CCC2(C)C(CCC3(C)C2CC=C2C4CC(C)(C)CCC4(C(=O)OCC=CCOC(=O)C45CCC(C)(C)CC4C4=CCC6C7(C)CCC(OC(C)=O)C(C)(C)C7CCC6(C)C4(C)CC5)CCC23C)C1(C)C` (stereo not drawn) [Compound 3e], the IC50 is 3.07 µM in the data set on SKBR-3; 6.66 µM in the data set with HDF; 3.48 µM with U-87; 2.95 µM in the data set on SKOV-3; 3.35 µM in the data set on PC-3; 2.5 to 4.5 µM in data set [1] (Homo sapiens). Besides, the “SKBR-3 SI” value in the data set on SKBR-3 turned out to be 2.17. In addition, in the data set with U-87, the “U-87 SI” value came to 1.91. In addition, the “CUPRAC activity (in words)” value in “CUPRAC antioxidant assay” is recorded as “highest CUPRAC activity”. The “SKOV-3 SI” value with SKOV-3 is given as 2.26. For the same compound, the “B SI” value in the data set on PC-3 was 1.99.
On to `CC1(C)CCC2(C(=O)OCCCCCCCCOC(=O)C34CCC(C)(C)CC3C3=CCC5C6(C)CCC(O)C(C)(C)C6CCC5(C)C3(C)CC4)CCC3(C)C(=CCC4C5(C)CCC(O)C(C)(C)C5CCC43C)C2C1` (stereo not drawn) [Compound 2j], for which the “CUPRAC activity (in words), previous analysis” value in [2] is “high CUPRAC values”.
For the compound `CC1(C)CCC2(C(=O)OCCCCCCCOC(=O)C34CCC(C)(C)CC3C3=CCC5C6(C)CCC(O)C(C)(C)C6CCC5(C)C3(C)CC4)CCC3(C)C(=CCC4C5(C)CCC(O)C(C)(C)C5CCC43C)C2C1` (stereo not drawn) [Compound 2i], the “CUPRAC activity (in words), previous analysis” value in [2] is “high CUPRAC values”.
Take `CC(=O)OC1CCC2(C)C(CCC3(C)C2CC=C2C4CC(C)(C)CCC4(C(=O)OCOC(=O)C45CCC(C)(C)CC4C4=CCC6C7(C)CCC(OC(C)=O)C(C)(C)C7CCC6(C)C4(C)CC5)CCC23C)C1(C)C` (stereo not drawn) [Compound 3a]: the melting point was in the range of 286 to 288 °C. Also, in the data set with SKBR-3, half-maximal inhibition (IC50) was put at 2.04 µM. Also, the IC50 in the data set on HDF came out at 6.63 µM. Also, the IC50 with U-87 turned out to be 2.03 µM. Further, the “CUPRAC activity (in words)” value in “CUPRAC antioxidant assay” is on record as “moderate CUPRAC activity”. Moreover, the “DPPH activity (in words)” value in the data set “DPPH antioxidant assay” is “higher antioxidant activity than OA; also recorded: high DPPH activity”. The IC50 with PC-3 is 2.26 µM. Further, the IC50 in [1] (Homo sapiens) was roughly 2 µM.
With `CC1(C)CCC2(C(=O)OCOC(=O)C34CCC(C)(C)CC3C3=CCC5C6(C)CCC(O)C(C)(C)C6CCC5(C)C3(C)CC4)CCC3(C)C(=CCC4C5(C)CCC(O)C(C)(C)C5CCC43C)C2C1` (stereo not drawn) [Compound 2a], in data set [2], the “CUPRAC activity (in words), previous analysis” value is reported as “lower CUPRAC activity”. The “DPPH activity (in words), previous analysis” value in data set [3] is on record as “high DPPH activity”.
Take `CC1(C)CC[C@]2(C(=O)O)CC[C@]3(C)C(=CC[C@@H]4[C@@]5(C)CC[C@H](O)C(C)(C)[C@@H]5CC[C@]43C)[C@@H]2C1` [Compound 1, oleanolic acid]: the “SKBR-3 SI” value with SKBR-3 is reported as 1.27. The 50% inhibitory concentration (IC50) in the data set with HDF stood at 24.9 µM. Besides, in the data set on U-87, the “U-87 SI” value was 1.37 and the half-inhibitory concentration (IC50) was determined as 18.2 µM. Besides, the CUPRAC antioxidant activity in the data set “CUPRAC antioxidant assay” was found to be 0.05474 ± 0.00171 Trolox equivalents. Moreover, the “SKOV-3 SI” value with SKOV-3 came to 1.32. Also, the DPPH antioxidant activity in “DPPH antioxidant assay” was 0.01907 ± 0.0006506 Trolox equivalents. Besides, in the data set with PC-3, the IC50 was determined as 18.6 µM and the “B SI” value came to 1.33.
Take `CC(=O)OC1CCC2(C)C(CCC3(C)C2CC=C2C4CC(C)(C)CCC4(C(=O)OCCCCCCCCCCCCOC(=O)C45CCC(C)(C)CC4C4=CCC6C7(C)CCC(OC(C)=O)C(C)(C)C7CCC6(C)C4(C)CC5)CCC23C)C1(C)C` (stereo not drawn) [Compound 3n]: in the data set with SKBR-3, the IC50 worked out at 9.69 µM and the “SKBR-3 SI” value came to 1.52. For the same compound, the solubility in ethanol entry in [4] is “well soluble”. The compound further gave an IC50 with HDF of 14.7 µM. Further, in the data set on U-87, the “U-87 SI” value turned out to be 1.45 and the IC50 worked out at 10.2 µM. For the same compound, in the data set on SKOV-3, the IC50 is 10.2 µM and the “SKOV-3 SI” value is 1.43. Further, in the data set with PC-3, the IC50 turned out to be 9.49 µM and the “B SI” value came out at 1.55.
With `CC(=O)OC1CCC2(C)C(CCC3(C)C2CC=C2C4CC(C)(C)CCC4(C(=O)OCCCCCCCCCCCOC(=O)C45CCC(C)(C)CC4C4=CCC6C7(C)CCC(OC(C)=O)C(C)(C)C7CCC6(C)C4(C)CC5)CCC23C)C1(C)C` (stereo not drawn) [Compound 3m], the IC50 was 1.78 µM in the data set with SKBR-3; 4.62 µM with HDF; 1.83 µM in the data set with U-87; 2.31 µM in the data set on SKOV-3; 1.76 µM in the data set with PC-3; roughly 2 µM in [1] (Homo sapiens). The same compound had a half-inhibitory concentration (IC50) in data set [1] of no more than 2 µM. Further, the “SKBR-3 SI” value with SKBR-3 came to 2.59. In addition, the solubility in ethanol entry in [4] is “well soluble”. Further, the “U-87 SI” value in the data set with U-87 amounted to 2.52. Further, in the data set “CUPRAC antioxidant assay”, the “CUPRAC activity (in words)” value was “highest CUPRAC activity”. The “SKOV-3 SI” value in the data set on SKOV-3 is 2.00. Also, the “B SI” value in the data set on PC-3 turned out to be 2.62.
As for `CC1(C)CCC2(C(=O)OCCCCCOC(=O)C34CCC(C)(C)CC3C3=CCC5C6(C)CCC(O)C(C)(C)C6CCC5(C)C3(C)CC4)CCC3(C)C(=CCC4C5(C)CCC(O)C(C)(C)C5CCC43C)C2C1` (stereo not drawn) [Compound 2g], the “CUPRAC activity (in words), previous analysis” value in [2] is on record as “high CUPRAC values”.
In the case of `CC(=O)OC1CCC2(C)C(CCC3(C)C2CC=C2C4CC(C)(C)CCC4(C(=O)OCCOC(=O)C45CCC(C)(C)CC4C4=CCC6C7(C)CCC(OC(C)=O)C(C)(C)C7CCC6(C)C4(C)CC5)CCC23C)C1(C)C` (stereo not drawn) [Compound 3b], the IC50 is 2.97 µM with SKBR-3; 7.05 µM in the data set with HDF; 3.1 µM in the data set on U-87; 3.04 µM with SKOV-3; 3.12 µM with PC-3; 2.5 to 4.5 µM in [1] (Homo sapiens). In addition, the “SKBR-3 SI” value in the data set with SKBR-3 was determined as 2.37. The “U-87 SI” value in the data set on U-87 was 2.27. Besides, the “CUPRAC activity (in words)” value in the data set “CUPRAC antioxidant assay” is reported as “highest CUPRAC activity; also recorded: high CUPRAC activity”. In addition, the “SKOV-3 SI” value in the data set with SKOV-3 is listed as 2.32. Besides, the “DPPH activity (in words)” value in “DPPH antioxidant assay” is given as “low DPPH activity”. The “B SI” value with PC-3 is given as 2.26.
As for `CC1(C)CCC2(C(=O)OCCCCCCCCCCCOC(=O)C34CCC(C)(C)CC3C3=CCC5C6(C)CCC(O)C(C)(C)C6CCC5(C)C3(C)CC4)CCC3(C)C(=CCC4C5(C)CCC(O)C(C)(C)C5CCC43C)C2C1` (stereo not drawn) [Compound 2m], the “CUPRAC activity (in words), previous analysis” value in data set [2] is given as “high CUPRAC values”.

A word on the IC50: it is the concentration that inhibits the measured activity by half. One may read the melting point as the temperature, or range, at which the solid turns liquid.

These data come from publication PMC11434080, “Acetylation of Oleanolic Acid Dimers as a Method of Synthesis of Powerful Cytotoxic Agents” (Molecules, 2024).
